Source: patent publication US9255101B2 (BIOPROJECT, priority 2012, dated 2016)
Read-outs that look alike come from different tables or passages of the source.

What was measured:
human H4 receptor [1] = biological target: T1, human H4 receptor (Homo sapiens, UniProt Q9H3N8); test: biochemical
human H4 receptor [2] = biological target: T1, human H4 receptor; test: biochemical; remark: listed apart in the source
human H4 receptor [3] = biological target: T1, human H4 receptor
human H4 receptor [4] = biological target: T1, human H4 receptor; remark: listed apart in the source
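For IC50 in this document: membranes from SH-SY5Y cells with stable human H4 receptor expression, incubated with GDP 10 µM, radioactivity retained on filters counted by liquid scintillation.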
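For Ki in this document: radioligand displacement of a [3H]-labelled ligand from membranes of CHO cells stably expressing human H4 receptor, bound radioactivity counted on filters by liquid scintillation.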

T1 sequence (Q9H3N8 whole entry): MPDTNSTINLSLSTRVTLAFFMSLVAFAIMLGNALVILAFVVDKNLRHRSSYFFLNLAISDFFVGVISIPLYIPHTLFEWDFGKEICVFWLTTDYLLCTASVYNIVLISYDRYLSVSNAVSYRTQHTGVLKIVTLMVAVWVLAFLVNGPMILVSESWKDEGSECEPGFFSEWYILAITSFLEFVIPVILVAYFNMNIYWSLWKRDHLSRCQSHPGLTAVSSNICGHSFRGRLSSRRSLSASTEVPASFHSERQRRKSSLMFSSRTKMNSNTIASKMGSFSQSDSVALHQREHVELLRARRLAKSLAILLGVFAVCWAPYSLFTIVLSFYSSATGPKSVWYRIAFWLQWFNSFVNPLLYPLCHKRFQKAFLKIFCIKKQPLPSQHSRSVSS

Cc1c(-c2cccc(Cl)c2)nc2n1CCc1ccccc1C2OC1CCN(C)CC1 (stereo not drawn) [Example 145, 2-(3-chlorophenyl)-1-methyl-4-(1-methylpiperidin-4-yloxy)-9,10-dihydro-4H-3,10a-diaza-benzo[f]azulene]
Ki (human H4 receptor [1]): < 30 nM
melting point: 72 °C
IC50 (human H4 receptor [2]): < 30 nM

Cc1cccc(-c2nc3n(c2C)CCc2ccccc2C3OC2CCN(C)CC2)c1 (stereo not drawn) [Example 144, 1-methyl-4-(1-methylpiperidin-4-yloxy)-2-m-tolyl-9,10-dihydro-4H-3,10a-diaza-benzo[f]azulene]
Ki (human H4 receptor [1]): < 30 nM
melting point: 66 °C
IC50 (human H4 receptor [2]): < 30 nM

4-(1-methylpiperidin-4-yloxy)-2-phenylethynyl-9,10-dihydro-4H-3,10a-diaza-benzo[f]azulene [Example 34]
IC50 (human H4 receptor [3]): < 300 nM
Ki (human H4 receptor [4]): < 300 nM

Cc1c(-c2ccc(C=CC(=O)OC(C)(C)C)cc2)nc2n1CCc1ccccc1C2OC1CCN(C)CC1 (stereo not drawn) [Example 151, 3-{4-[1-methyl-4-(1-methylpiperidin-4-yloxy)-9,10-dihydro-4H-3,10a-diaza-benzo[f]azulen-2-yl]-phenyl}-acrylic acid tert-butyl ester]
Ki (human H4 receptor [1]): < 30 nM
melting point: 185 °C
IC50 (human H4 receptor [2]): < 30 nM

Cc1c(-c2ccccc2F)nc2n1CCc1ccccc1C2OC1CCN(C)CC1 (stereo not drawn) [Example 142, 2-(2-fluorophenyl)-1-methyl-4-(1-methylpiperidin-4-yloxy)-9,10-dihydro-4H-3,10a-diaza-benzo[f]azulene]
Ki (human H4 receptor [1]): < 300 nM
melting point: 68 °C
IC50 (human H4 receptor [2]): < 30 nM

Cc1ccc(-c2nc3n(c2C)CCc2ccccc2C3OC2CCN(C)CC2)cc1 (stereo not drawn) [Example 153, 1-methyl-4-(1-methylpiperidin-4-yloxy)-2-p-tolyl-9,10-dihydro-4H-3,10a-diaza-benzo[f]azulene]
Ki (human H4 receptor [1]): < 30 nM
melting point: 181 °C
IC50 (human H4 receptor [2]): < 30 nM

CN1CCC(OC2c3ccccc3CCn3cc(-c4ccccc4)nc32)CC1 (stereo not drawn) [Example 4, 4-(1-methylpiperidin-4-yloxy)-2-phenyl-9,10-dihydro-4H-3,10a-diaza-benzo[f]azulene]
Ki (human H4 receptor [1]): < 300 nM
melting point: 113 °C
IC50 (human H4 receptor [2]): < 300 nM

Cc1c(-c2ccccc2Cl)nc2n1CCc1ccccc1C2OC1CCN(C)CC1 (stereo not drawn) [Example 146, 2-(2-chlorophenyl)-1-methyl-4-(1-methylpiperidin-4-yloxy)-9,10-dihydro-4H-3,10a-diaza-benzo[f]azulene]
Ki (human H4 receptor [1]): < 30 nM
melting point: 78 °C
IC50 (human H4 receptor [2]): < 30 nM

Cc1ccccc1-c1nc2n(c1C)CCc1ccccc1C2OC1CCN(C)CC1 (stereo not drawn) [Example 147, 1-methyl-4-(1-methylpiperidin-4-yloxy)-2-o-tolyl-9,10-dihydro-4H-3,10a-diaza-benzo[f]azulene]
Ki (human H4 receptor [1]): < 30 nM
melting point: 74 °C
IC50 (human H4 receptor [2]): < 30 nM

CN1CCC(OC2c3ccccc3CCn3c2nc(-c2ccc(Br)cc2)c3Cl)CC1 (stereo not drawn) [Example 127, 2-(4-bromophenyl)-1-chloro-4-(1-methylpiperidin-4-yloxy)-9,10-dihydro-4H-3,10a-diaza-benzo[f]azulene]
Ki (human H4 receptor [1]): < 30 nM
melting point: 169 °C
IC50 (human H4 receptor [2]): < 30 nM

Cc1ccc(-c2cn3c(n2)C(OC2CCN(C)CC2)c2ccccc2CC3)s1 (stereo not drawn) [Example 96, 4-(1-methylpiperidin-4-yloxy)-2-(5-methylthiophen-2-yl)-9,10-dihydro-4H-3,10a-diaza-benzo[f]azulene]
IC50 (human H4 receptor [3]): < 300 nM
Ki (human H4 receptor [4]): < 300 nM

COc1cccc(-c2nc3n(c2C)CCc2ccccc2C3OC2CCN(C)CC2)c1 (stereo not drawn) [Example 150, 2-(3-methoxyphenyl)-1-methyl-4-(1-methypiperidin-4-yloxy)-9,10-dihydro-4H-3,10a-diaza-benzo[f]azulene]
Ki (human H4 receptor [1]): < 30 nM
melting point: 138 °C
IC50 (human H4 receptor [2]): < 30 nM

CN1CCC(OC2c3ccccc3CCn3cc(-c4ccc(Br)cc4)nc32)CC1 (stereo not drawn) [Example 81, 2-(4-bromophenyl)-4-(1-methylpiperidin-4-yloxy)-9,10-dihydro-4H-3,10a-diaza-benzo[f]azulene]
Ki (human H4 receptor [1]): < 30 nM
melting point: 142 °C
IC50 (human H4 receptor [2]): < 30 nM

CN1CCC(OC2c3ccccc3CCn3c2nc(-c2ccccc2)c3CO)CC1 (stereo not drawn) [Example 257, [4-(1-methylpiperidin-4-yloxy)-2-phenyl-9,10-dihydro-4H-3,10a-diaza-benzo[f]azulen-1-yl]-methanol]
Ki (human H4 receptor [1]): < 300 nM
melting point: 120 °C
IC50 (human H4 receptor [2]): < 300 nM

CN1CCC(OC2c3ccccc3CCn3cc(C#Cc4cccnc4)nc32)CC1 (stereo not drawn) [Example 63, 4-(1-methylpiperidin-4-yloxy)-2-pyridin-3-ylethynyl-9,10-dihydro-4H-3,10a-diaza-benzo[f]azulene]
Ki (human H4 receptor [4]): < 1000 nM

Cc1c(-c2ccc(NS(=O)(=O)C3CC3)cc2)nc2n1CCc1ccccc1C2OC1CCN(C)CC1 (stereo not drawn) [Example 187, 4-[1-methyl-4-(1-methylpiperidin-4-yloxy)-9,10-dihydro-4H-3,10a-diaza-benzo[f]azulen-2-yl]-phenyl-cyclopropanesulfonamide]
IC50 (human H4 receptor [3]): < 300 nM
Ki (human H4 receptor [4]): < 300 nM

COc1ccc(-c2nc3n(c2C)CCc2ccccc2C3OC2CCN(C)CC2)cc1 (stereo not drawn) [Example 156, 2-(4-methoxyphenyl)-1-methyl-4-(1-methylpiperidin-4-yloxy)-9,10-dihydro-4H-3,10a-diaza-benzo[f]azulene]
Ki (human H4 receptor [1]): < 30 nM
melting point: 164 °C
IC50 (human H4 receptor [2]): < 30 nM

Cc1c(-c2cccc(F)c2)nc2n1CCc1ccccc1C2OC1CCN(C)CC1 (stereo not drawn) [Example 143, 2-(3-fluorophenyl)-1-methyl-4-(1-methylpiperidin-4-yloxy)-9,10-dihydro-4H-3,10a-diaza-benzo[f]azulene]
Ki (human H4 receptor [1]): < 30 nM
melting point: 132 °C
IC50 (human H4 receptor [2]): < 30 nM

Cc1c(-c2ccc(N3CCOC3=O)cc2)nc2n1CCc1ccccc1C2OC1CCN(C)CC1 (stereo not drawn) [Example 131, 3-{4-[1-methyl-4-(1-methylpiperidin-4-yloxy)-9,10-dihydro-4H-3,10a-diaza-benzo[f]azulen-2-yl]-phenyl}-oxazolidin-2-one]
Ki (human H4 receptor [1]): < 300 nM
melting point: 214 °C

CCCc1c(-c2ccccc2)nc2n1CCc1ccccc1C2OC1CCN(C)CC1 (stereo not drawn) [Example 238, 4-(1-methylpiperidin-4-yloxy)-2-phenyl-1-propyl-9,10-dihydro-4H-3,10a-diaza-benzo[f]azulene]
Ki (human H4 receptor [1]): < 300 nM
melting point: 144 °C

CN1CCC(OC2c3ccccc3CCn3c(I)cnc32)CC1 (stereo not drawn) [Example 3, 1-iodo-4-(1-methylpiperidin-4-yloxy)-9,10-dihydro-4H-3,10a-diaza-benzo[f]azulene]
Ki (human H4 receptor [1]): < 300 nM
melting point: 163 °C

CN1CCC(OC2c3ccccc3CCn3c2nc(-c2ccccc2)c3C=O)CC1 (stereo not drawn) [Example 262, 4-(1-methylpiperidin-4-yloxy)-2-phenyl-9,10-dihydro-4H-3,10a-diaza-benzo[f]azulene-1-carbaldehyde]
Ki (human H4 receptor [1]): < 300 nM
melting point: 70 °C
